Measured values from patent US20150025019A1, “Method for Dosage Adjustment of Drugs that Prevent Elastic Fiber Breakdown” (priority 2013, published 2015).
Entries after “also recorded” stand apart in the source; their conditions may differ.

Key:
[1] = tested on: lung inflammation in a cystic fibrosis model; conditions: cystic fibrosis model in mice; cited from earlier work
[2] = tested on: emphysema induced by elastase enzymes; conditions: animals; aerosol; cited from earlier work
elastic fiber breakdown = experiment: Illustrative examples of titrating aerosolized hyaluronan by sputum desmosine and isodesmosine level; assay type: in vivo, human
Protocol: Examples of the use of the invention to titrate treatment with aerosolized hyaluronan are given below:
1) A patient with pulmonary emphysema is found to have an abnormally high level of sputum desmosine and isodesmosine (20 nanograms/gram protein compared to a normal level of less than 5 nanograms/g protein), and begins treatment with a dose of 0.1% hyaluronan that is inhaled for 20 minutes once daily in the morning. After 1 month, the sputum desmosine and isodesmosine level is measured and found to be 10 nanograms/g of protein in the sputum, which is more than twice the upper limit of normal. The patient is then switched to a twice daily inhalation for 20 minutes in the morning and evening. Two weeks later, the patient's sputum desmosine and isodesmosine level has fallen to 1 nanogram/g of protein, which is within the normal range. Their treatment is therefore left unchanged and sputum desmosine and isodesmsoine levels are measured at monthly intervals to ensure that the drug remains effective in preventing elastic fiber breakdown.
2) A patient with a history of smoking is tested for sputum desmosine and isodesmosine levels. They are found to have a mildly elevated level of 6 nanograms/g protein, and is placed on low dose hyaluronan, involving a single daily 20 minute inhalation of 0.05% hyaluronan. Two weeks later, their sputum desmosine and isodesmosine level is 1 nanogram/g protein, which is within the normal range. Based on this finding, their treatment is lowered to a 20 minute inhalation of hyaluronan every other day. Two weeks later, their sputum desmosine and isodesmsoine level has risen to 6 nanograms/g protein, which is above the upper limit of normal. Their treatment regimen is therefore returned to a 20 minute inhalation every day. Two weeks later, their sputum desmosine and isodesmosine level has fallen to 1 nanogram/g protein. Their treatment needs no further modification, and sputum desmosine and isodesmosine levels are measured at monthly intervals to ensure that the drug remains effective in preventing elastic fiber breakdown.

[3] = Clinical safety trial of hyaluronan aerosol in COPD patients: safety endpoints; assay type: in vivo, human
Protocol: (§1) With this background, efforts continue to develop hyaluronan aerosol as a potential therapy for chronic obstructive pulmonary disease (COPD) related to alpha-1 antitrypsin deficiency (AATD) and not related to AATD. As part of that development this clinical safety trial was conducted in 11 COPD patients, 8 of whom received hyaluronan and 3 received placebo. The study protocol was conducted under IND number 70299. The primary aim of the study was to establish safety and to evaluate biomarker activity with respect to body and lung elastin degradation.
Eleven patients were recruited from 2 Centers: 9 patients from Research Associates in Tucson Ariz. and 2 patients from St. Luke's-Roosevelt Hospital Pulmonary Disease Center in New York. All patients fulfilled the diagnostic criteria of COPD with GOLD grades 2 and 3 with moderate airway obstruction (FEV1 above 40% of predicted) and at least a ten pack-year history of cigarette smoking. No patients were actively smoking at the time of recruitment and smoking cessation had occurred over one year prior to the study in all patients. Six patients were male […]. All were Caucasian. Three patients received placebo. Eight patients received hyaluronan CTX-100.
(§2) Each patient self-administered 0.01% hyaluronan from a vialed volume of 3 ml by aerosol from a compressor-delivered Pari nebulizer, morning and night for 14 days. The primary endpoints to assess safety were adverse events, oxygen saturation, spirometry, lung volumes, physical examination, vital signs, electrocardiogram and laboratory evaluations (CBC, serum chemistries and urinalysis). Additionally, desmosine and isodesmosine concentrations in sputum, plasma and urine were measured to assess a possible effect on elastin degradation (44, 45)

[4] = tested on: pulmonary emphysema induced by tobacco smoke; conditions: mice exposed to tobacco smoke over a 6-month period; cited from earlier work
[5] = therapy in cystic fibrosis; cited from earlier work
elastin degradation = experiment: Desmosine and isodesmosine concentrations in sputum, plasma and urine of COPD patients in the clinical trial; assay type: in vivo, human; conditions: 2 weeks of hyaluronan aerosol; for Levels of desmosine and isodesmosine in sputum: all 6 patients who provided sputum samples
Protocol: as §1, §2
Sputum samples collected from patients with emphysema and other inflammatory lung diseases are chemically degraded to separate the component amino acids of elastic fibers and other proteins. This procedure may involve hydrolyzing the sample with an acid such as HCl or a base such as NaOH, according to procedures well known to the art. The resulting hydrolysate is then measured for total elastin-specific amino acids, desmosine and isodesmosine, using a variety of procedures, including liquid chromatography or immunoassay, ultraviolet spectroscopy, fluorescence spectroscopy, mass spectrometry, or other spectroscopic techniques well-known to the art.
Desmosine and isodesmosine content of the sputum sample is then normalized to one or more parameters, such as total protein, albumin, or free amino acids, according to procedures well known to the art. The final value is expressed as total desmosine/isodesmosine per unit volume, protein, albumin, amino acids or other relevant parameter. Results obtained from the same patient over time may be used to determine variations in the amount of lung elastic fiber injury.

elastin fibers = conditions: in vitro; cited from earlier work
[6] = listed as aerosolized hyaluronan

hyaluronan
Lung inflammation [1]: reduce lung inflammation in a cystic fibrosis model in mice
Severity of emphysema induced by elastase enzymes [2]: decrease the severity of emphysema induced by elastase enzymes
Sputum desmosine and isodesmosine level (elastic fiber breakdown; patient with history of smoking, start 6, single daily 20 minute inhalation of 0.05% hyaluronan, two weeks later): 1 nanogram/g protein
Sputum desmosine and isodesmosine level (elastic fiber breakdown; patient with pulmonary emphysema, start 20, 0.1% hyaluronan inhaled 20 minutes once daily, after 1 month): 10 nanograms/g of protein
Sputum desmosine and isodesmosine level (elastic fiber breakdown; same patient, 0.1% hyaluronan, twice daily 20 minute inhalation, two weeks later): 1 nanogram/g of protein
Sputum desmosine and isodesmosine level (elastic fiber breakdown; same patient, 20 minute inhalation every other day, two weeks later): 6 nanograms/g protein
Sputum desmosine and isodesmosine level (elastic fiber breakdown; same patient, returned to 20 minute inhalation every day, two weeks later): 1 nanogram/g protein
Adverse events ([3]; 0.01% hyaluronan, 3 ml by aerosol, morning and night for 14 days): mild to moderate
Effect on EKG ([3]; 2 weeks of administration): no significant effect
Effect on routine laboratory procedures ([3]; 2 weeks of administration): no significant effect
Effect on spirometric indices ([3]; 2 weeks of administration): no significant effect
Pulmonary emphysema induced by tobacco smoke [4]: decrease the pulmonary emphysema induced in mice exposed to tobacco smoke
Tolerability of hypertonic saline [5]: improve tolerability of hypertonic saline
Blood levels of desmosine and isodesmosine (elastin degradation): significant reduction
Urine levels of desmosine and isodesmosine (elastin degradation): significant reduction
Levels of desmosine and isodesmosine in sputum (elastin degradation): statistically significant reduction; also recorded: Reductions
Levels of desmosine and isodesmosine in sputum (elastin degradation; [6]): statistically significant decline
Blood levels of desmosine and isodesmosine (elastin degradation; [6]): statistically significant decline
Urine levels of desmosine and isodesmosine (elastin degradation; [6]): statistically significant decline
Elastase degradation of elastin fibers (elastin fibers): block elastase degradation of elastin fibers in vitro
